# Legend:
# [1] = system: adjuvant-induced arthritis (AIA); experiment: Adjuvant-induced arthritis (AIA) model; assay type: in vivo, Lewis rats
# Protocol: In vivo adjuvant-induced arthritis (AIA) model. Five-week-old male Lewis rats were obtained from the National Laboratory Animal Center (Taipei, Taiwan). Complete Freund's adjuvant (CFA) was prepared by suspending heat-killed Mycobacterium butyricum (Difco) in mineral oil at 3 mg/mL. CFA-induced arthritis was induced by intradermal injection of 100 μL, of the CFA emulsion into the base of the right hind paw on day 0. […] On days 0, 2, 6, 9, 13, 17, and 21, the animals were weighed and both hind paw volumes measured using a digital plethysmometer (Diagnostic & Research Instruments Co. Ltd, Taipei, Taiwan). On day 21, micro-computed tomography (micro-CT) of the paws was performed by the Core Facilities Center of the National Research Program for Biopharmaceuticals using an in vivo micro-CT scanner (Skyscan 1176, Bruker Corp., Kontich, Belgium) at 18 μm resolution and 180° scanning with a rotation step of 0.8o per image, 300 msec integration time, 70 keV photon energy, and 350 μA current.
# Quantification of volumetric bone mineral density (BMD) and bone volume (BV) was performed in a defined bone area ranging 12 mm from tarsals to the end of the calcaneus. The bone mineral content (BMC) was described by the product of BV and BMD.
# ROCK2 = ROCK2 (Homo sapiens, UniProt O75116); experiment: Protein kinase assay (Kinome assay); assay type: binding
# Chain of ROCK2 (O75116 whole entry, species assumed): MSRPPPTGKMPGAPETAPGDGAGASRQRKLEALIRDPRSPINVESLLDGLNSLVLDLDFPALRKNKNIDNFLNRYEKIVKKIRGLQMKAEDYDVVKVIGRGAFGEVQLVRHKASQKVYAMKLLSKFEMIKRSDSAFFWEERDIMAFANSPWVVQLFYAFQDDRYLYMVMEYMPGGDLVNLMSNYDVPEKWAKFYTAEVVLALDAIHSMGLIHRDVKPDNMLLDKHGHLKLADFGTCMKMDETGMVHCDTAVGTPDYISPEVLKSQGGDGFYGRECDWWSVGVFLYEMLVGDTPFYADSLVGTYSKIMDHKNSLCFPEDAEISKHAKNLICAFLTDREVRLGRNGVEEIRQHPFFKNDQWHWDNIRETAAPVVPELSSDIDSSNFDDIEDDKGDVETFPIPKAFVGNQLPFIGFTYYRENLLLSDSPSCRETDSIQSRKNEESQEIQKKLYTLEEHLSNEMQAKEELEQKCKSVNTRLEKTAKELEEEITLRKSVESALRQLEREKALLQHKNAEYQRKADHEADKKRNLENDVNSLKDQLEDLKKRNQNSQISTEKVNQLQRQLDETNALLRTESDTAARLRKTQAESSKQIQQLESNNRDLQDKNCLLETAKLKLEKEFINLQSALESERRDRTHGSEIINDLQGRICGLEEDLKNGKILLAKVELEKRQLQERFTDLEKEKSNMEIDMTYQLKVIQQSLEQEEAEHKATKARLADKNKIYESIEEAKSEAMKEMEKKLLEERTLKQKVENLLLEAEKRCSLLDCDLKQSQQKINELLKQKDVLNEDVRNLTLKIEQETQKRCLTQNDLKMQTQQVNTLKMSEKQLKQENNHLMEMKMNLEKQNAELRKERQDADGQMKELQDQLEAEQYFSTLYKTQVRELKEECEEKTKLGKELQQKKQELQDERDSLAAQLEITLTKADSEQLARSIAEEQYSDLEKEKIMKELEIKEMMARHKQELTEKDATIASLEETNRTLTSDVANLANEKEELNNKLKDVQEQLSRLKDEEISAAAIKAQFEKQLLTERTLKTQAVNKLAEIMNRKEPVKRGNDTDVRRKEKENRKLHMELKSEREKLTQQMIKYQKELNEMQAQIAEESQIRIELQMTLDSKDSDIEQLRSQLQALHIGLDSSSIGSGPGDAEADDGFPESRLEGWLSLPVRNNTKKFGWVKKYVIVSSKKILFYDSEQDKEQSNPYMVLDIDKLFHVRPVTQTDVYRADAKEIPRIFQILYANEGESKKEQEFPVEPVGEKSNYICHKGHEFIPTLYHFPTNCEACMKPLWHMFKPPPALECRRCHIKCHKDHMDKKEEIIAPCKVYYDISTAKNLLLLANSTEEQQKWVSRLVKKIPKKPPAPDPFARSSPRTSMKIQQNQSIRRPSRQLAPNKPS
# Source text: (§1) The compounds of the invention were subjected to protein kinase assay.
# DYRK1B = DYRK1B (Homo sapiens, UniProt Q9Y463); experiment: Protein kinase assay (Kinome assay); assay type: binding
# Chain of DYRK1B (Q9Y463 whole entry, species assumed): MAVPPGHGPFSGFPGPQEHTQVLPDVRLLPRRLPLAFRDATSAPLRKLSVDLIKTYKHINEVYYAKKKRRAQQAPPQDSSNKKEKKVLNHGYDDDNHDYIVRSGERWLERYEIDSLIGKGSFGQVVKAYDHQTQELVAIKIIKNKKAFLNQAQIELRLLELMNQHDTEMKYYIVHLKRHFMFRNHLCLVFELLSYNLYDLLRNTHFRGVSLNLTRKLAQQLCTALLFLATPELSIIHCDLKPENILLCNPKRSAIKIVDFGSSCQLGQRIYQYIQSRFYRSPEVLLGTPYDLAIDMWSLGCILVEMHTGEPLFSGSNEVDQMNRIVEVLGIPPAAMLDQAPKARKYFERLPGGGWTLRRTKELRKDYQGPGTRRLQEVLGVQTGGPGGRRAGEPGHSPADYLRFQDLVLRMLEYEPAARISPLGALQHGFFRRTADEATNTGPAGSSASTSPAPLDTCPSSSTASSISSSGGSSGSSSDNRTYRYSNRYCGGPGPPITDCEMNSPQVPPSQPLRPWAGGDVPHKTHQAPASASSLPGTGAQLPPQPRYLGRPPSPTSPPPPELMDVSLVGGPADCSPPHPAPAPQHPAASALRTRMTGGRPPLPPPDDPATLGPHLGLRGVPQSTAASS
# Source text: as §1
# JNK3 = JNK3 (Homo sapiens, UniProt P53779); experiment: Protein kinase assay (Kinome assay); assay type: binding
# Chain of JNK3 (P53779 whole entry, species assumed): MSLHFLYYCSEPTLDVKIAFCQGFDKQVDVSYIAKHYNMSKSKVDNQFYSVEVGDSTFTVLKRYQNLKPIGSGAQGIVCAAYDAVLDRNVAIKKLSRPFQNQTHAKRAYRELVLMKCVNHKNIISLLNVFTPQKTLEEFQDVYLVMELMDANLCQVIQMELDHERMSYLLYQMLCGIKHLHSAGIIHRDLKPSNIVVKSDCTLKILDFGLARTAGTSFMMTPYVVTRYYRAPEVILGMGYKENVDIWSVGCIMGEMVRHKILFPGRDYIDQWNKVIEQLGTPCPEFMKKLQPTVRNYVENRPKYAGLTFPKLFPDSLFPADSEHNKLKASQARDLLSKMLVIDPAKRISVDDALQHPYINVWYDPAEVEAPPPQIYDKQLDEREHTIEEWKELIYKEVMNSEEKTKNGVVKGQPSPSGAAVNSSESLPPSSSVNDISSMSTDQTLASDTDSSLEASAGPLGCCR
# Source text: as §1
# RIOK2 = RIOK2 (Homo sapiens, UniProt Q9BVS4); experiment: Protein kinase assay (Kinome assay); assay type: binding
# Chain of RIOK2 (Q9BVS4 whole entry, species assumed): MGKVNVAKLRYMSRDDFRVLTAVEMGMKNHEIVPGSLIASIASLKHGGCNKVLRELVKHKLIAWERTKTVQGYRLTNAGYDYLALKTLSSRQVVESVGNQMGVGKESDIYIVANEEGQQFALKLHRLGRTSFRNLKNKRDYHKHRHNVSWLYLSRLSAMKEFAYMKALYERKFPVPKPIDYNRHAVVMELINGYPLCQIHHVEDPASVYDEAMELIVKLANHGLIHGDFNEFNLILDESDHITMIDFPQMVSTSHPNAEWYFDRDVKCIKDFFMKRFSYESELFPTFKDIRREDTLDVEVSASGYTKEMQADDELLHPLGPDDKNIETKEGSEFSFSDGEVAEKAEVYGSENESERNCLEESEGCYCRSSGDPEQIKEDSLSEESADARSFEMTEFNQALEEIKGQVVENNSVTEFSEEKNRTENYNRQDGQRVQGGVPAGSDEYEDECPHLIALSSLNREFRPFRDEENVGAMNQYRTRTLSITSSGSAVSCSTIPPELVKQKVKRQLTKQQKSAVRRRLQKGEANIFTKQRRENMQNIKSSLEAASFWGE
# Source text: as §1
# JNK1 = JNK1 (Homo sapiens, UniProt P45983); experiment: Protein kinase assay (Kinome assay); assay type: binding
# Chain of JNK1 (P45983 whole entry, species assumed): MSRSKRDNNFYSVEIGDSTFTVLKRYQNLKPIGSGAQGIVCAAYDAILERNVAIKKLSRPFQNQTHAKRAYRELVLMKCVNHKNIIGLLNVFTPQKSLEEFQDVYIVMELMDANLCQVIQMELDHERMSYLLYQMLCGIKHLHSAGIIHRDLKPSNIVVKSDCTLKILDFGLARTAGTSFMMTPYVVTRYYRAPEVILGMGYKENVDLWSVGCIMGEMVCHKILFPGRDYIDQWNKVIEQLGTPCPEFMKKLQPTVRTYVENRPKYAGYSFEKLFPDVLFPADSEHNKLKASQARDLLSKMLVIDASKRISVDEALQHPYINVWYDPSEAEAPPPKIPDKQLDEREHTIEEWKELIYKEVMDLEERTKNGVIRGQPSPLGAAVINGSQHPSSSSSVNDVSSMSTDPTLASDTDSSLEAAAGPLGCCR
# Source text: as §1
# CSNK1D = CSNK1D (Homo sapiens, UniProt P48730); experiment: Protein kinase assay (Kinome assay); assay type: binding
# Chain of CSNK1D (P48730 whole entry, species assumed): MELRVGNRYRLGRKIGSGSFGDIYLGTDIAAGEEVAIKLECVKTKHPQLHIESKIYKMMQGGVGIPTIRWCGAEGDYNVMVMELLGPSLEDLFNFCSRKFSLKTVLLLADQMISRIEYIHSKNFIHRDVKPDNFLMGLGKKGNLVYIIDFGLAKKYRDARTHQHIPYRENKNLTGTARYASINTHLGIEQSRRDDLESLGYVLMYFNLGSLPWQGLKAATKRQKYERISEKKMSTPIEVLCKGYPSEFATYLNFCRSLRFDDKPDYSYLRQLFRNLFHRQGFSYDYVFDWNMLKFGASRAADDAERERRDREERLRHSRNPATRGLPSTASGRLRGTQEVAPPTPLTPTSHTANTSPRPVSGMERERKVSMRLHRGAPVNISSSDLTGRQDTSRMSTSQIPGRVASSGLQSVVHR
# Source text: as §1
# PCTK1 = PCTK1 (Homo sapiens, UniProt Q00536); experiment: Protein kinase assay (Kinome assay); assay type: binding
# Chain of PCTK1 (Q00536 whole entry, species assumed): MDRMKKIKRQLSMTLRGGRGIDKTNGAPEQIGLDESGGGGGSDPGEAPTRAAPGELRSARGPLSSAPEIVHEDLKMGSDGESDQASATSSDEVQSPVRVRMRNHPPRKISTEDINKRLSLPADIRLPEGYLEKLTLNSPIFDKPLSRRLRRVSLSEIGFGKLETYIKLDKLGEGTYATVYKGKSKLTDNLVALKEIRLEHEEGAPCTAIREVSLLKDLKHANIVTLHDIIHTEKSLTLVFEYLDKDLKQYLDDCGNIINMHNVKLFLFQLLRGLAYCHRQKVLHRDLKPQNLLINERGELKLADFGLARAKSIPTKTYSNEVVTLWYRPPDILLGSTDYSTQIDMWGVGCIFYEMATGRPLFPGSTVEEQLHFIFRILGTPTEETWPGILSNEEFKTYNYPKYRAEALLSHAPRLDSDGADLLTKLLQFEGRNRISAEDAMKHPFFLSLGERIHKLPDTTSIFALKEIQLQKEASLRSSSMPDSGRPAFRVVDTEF
# Source text: as §1
# A431 = experiment: Growth inhibition assay; assay type: cell-based; conditions: Homo sapiens, A-431; A431 (Skin cancer), 48 hours
# Protocol: (§2) Cells were seeded in 96-well plastic plates and exposed to MPT0L056 for 48 hours. Cell viability was assessed using the 3-(4,5-dimethylthiazol-2-yl)-2,5-diphenyltetrazolium bromide assay. Growth inhibition was expressed as the percentage of surviving cells in drug-treated versus DMSO-treated control cells.
# [2] = system: human A2780 ovarian adenocarcinoma; experiment: Human A2780 ovarian cancer xenograft in female nude mice (TMU-A2780-e0001); assay type: in vivo
# [3] = system: human MDA-MB-231 breast adenocarcinoma; experiment: Human MDA-MB-231 breast cancer xenograft in female nude mice (TMU-MDA-MB-231-e0002)
# HL-60 = experiment: Growth inhibition assay; assay type: cell-based; conditions: Homo sapiens; HL-60 (Leukemia), 48 hours
# Protocol: as §2
# (§3) The compounds of the invention were subjected to growth inhibition assay.
# Hep 3B = experiment: Growth inhibition assay; assay type: cell-based; conditions: Homo sapiens, Hep3B; Hep 3B (Liver cancer), 48 hours; read-out: GI50
# Protocol: as §2, §3
# HCT-116 = experiment: Growth inhibition assay; assay type: cell-based; conditions: Homo sapiens; HCT-116 (Colorectal cancer), 48 hours; read-out: GI50
# Protocol: as §2, §3
# MDA-MB-231 = experiment: Growth inhibition assay; assay type: cell-based; conditions: Homo sapiens; MDA-MB-231 (Breast cancer), 48 hours; read-out: GI50
# Protocol: as §2, §3
# ITCH = ITCH (Homo sapiens, UniProt Q96J02); experiment: Blocking of ITCH self-ubiquitination, in vivo assay; assay type: cell-based; conditions: concentration of 0.5 um and 5 um, FIG. 2
# Source text: MPT0L056 of the invention was used to test the blocking of ITCH self-ubiquitination. […] [Reference for in vitro assay: Scialpi F, Malatesta M, Peschiaroli A, Rossi M, Melino G, and Bernassola F. Itch self-polyubiquitylation occurs through lysine-63 linkages. Biochem Pharmacol. 2008 Dec. 1; 76(11):1515-21. Reference for in vivo assay: Chang L, Kamata H, Solinas G, Luo J L, Maeda S, Venuprasad K, Liu Y C, and Karin M. The E3 ubiquitin ligase itch couples JNK activation to TNFalpha-induced cell death by inducing c-FLIP(L) turnover. Cell. 2006 Feb. 10; 124(3):601-131
# [4] = system: human RPMI8226 multiple myeloma; experiment: Human RPMI8226 multiple myeloma xenograft in female nude mice (TMU-RPMI8226-e0001); assay type: in vivo
# Source text: The 42-day study utilized five groups of mice (n=6) bearing established human PRMI8226 multiple myeloma with mean volumes of ˜85 mm^3 on D1. […] (FIG. 3).
# [5] = system: IL-6 production in murine RAW264.7 macrophage cells; experiment: IL-6 production in LPS-stimulated RAW264.7 macrophage cells (ELISA); assay type: cell-based; conditions: Mus musculus, RAW 264.7 cells, pretreated 1 h, LPS (25 ng/mL) 24 h
# Protocol: Cell culture. The RAW264.7 mouse macrophage cells were purchased from the Bioresource Collection and Research Center (Hsinchu, Taiwan) and the cells cultured at 37° C. in 5% CO2/95% air in, respectively, 90% Ham's F-12 or Dulbecco's modified Eagle medium, both containing 10% heat-inactivated fetal bovine serum (FBS) (Invitrogen Life Technologies, Carlsbad, CA) and 1% penicillin/streptomycin (Biological Industries, Israel).
# IL-6 Determination. To determine the effect of MPT0L056 on the production of cytokine IL-6 from LPS-stimulated cells, RAW 264.7 cells (1×10^6) were plated and pretreated in the presence or absence of MPT0L056 for 1 h, and then stimulated with LPS (25 ng/mL) for 24 h at 37° C. Supernatants were collected and the concentration of cytokines IL-6 was measured by ELISA kit.
# [6] = MPT0L056 25 mg/kg p.o. once every day for 42 days
# [7] = MPT0L056 50 mg/kg p.o. once every day for 42 days
structure (smiles),measurement,setting,value
O=C(Nc1ccncc1)c1ccc(CNC2=C(Cl)C(=O)c3ccccc3C2=O)cc1 [MPT0L056],bone mineral content (BMC) loss,"[1]; AIA model, FIG. 17",can prevent
same,bone mineral density (BMD) loss,"[1]; AIA model, FIG. 17",can prevent
same,development of arthritis (micro-CT),"[1]; MPT0L056 25 mg/kg, po, qd, day 2 to day 21, FIG. 15",inhibits development of arthritis
same,paw swelling,"[1]; MPT0L056 25 mg/kg, po, qd, day 2 to day 21, FIG. 16",significantly reduces paw swelling
same,Kd,ROCK2,580 nM
same,Kd,DYRK1B,1400 nM
same,Kd,JNK3,430 nM
same,Kd,RIOK2,6600 nM
same,Kd,JNK1,4200 nM
same,Kd,CSNK1D,2000 nM
same,Kd,PCTK1,> 10000 nM
same,GI50,A431,1200 nM
same,antitumor activity,[2]; MPT0L056 50 mg/kg (so in the source) p.o. once every day to the end,but not 50 mg/kg (P>0.05) produced significant antitumor activity
same,antitumor activity,[2]; MPT0L056 200 mg/kg p.o. once every day to the end,produced significant antitumor activity
same,body weight change,"[2]; MPT0L056 100 and 200 mg/kg, FIG. 8",did not significantly affect the animal body weight
same,tumor growth delay,[3]; MPT0L056 25 mg/kg p.o. once every day for ten days,did not significantly express tumor growth delay
same,antitumor activity,[3]; MPT0L056 50 mg/kg p.o. once every day for ten days,produced significant antitumor activity
same,antitumor activity,[3]; MPT0L056 100 mg/kg p.o. once every day for ten days,produced significant antitumor activity
same,body weight change,"[3]; MPT0L056 100, 50 and 25 mg/kg, FIG. 6",did not significantly affect the animal body weight
same,GI50,HL-60,1600 nM
same,GI50,Hep 3B,1400 nM
same,GI50,HCT-116,4300 nM
same,GI50,MDA-MB-231,2900 nM
same,blocking of ITCH's in vivo self-ubiquitination,ITCH,blocks ITCH's in vivo self-ubiquitination
same,antitumor activity,[4]; [6],produced significant antitumor activity
same,mice with complete regression (CR),[4]; [6],Two of six
same,antitumor activity,[4]; [7],produced significant antitumor activity
same,mice with complete regression (CR),[4]; [7],Two of six
same,body weight change,"[4]; MPT0L056 50 and 25 mg/kg, all doses tested, FIG. 4",without significantly body weight loss
same,IC50,[5],1210 nM
